The text below walks through data of publication PMC6137095 (Scientific Reports, 2018).

What all share (type): binding
The target of experiment [1] is T1, mSin3B PAH1 domain (Mus musculus, UniProt Q62141).
T1 construct: gene Sin3b; PAH1 domain, a.a; 28–107 with a Met at the N-terminus (GST fusion for WaterLOGSY/STD)
T1 sequence (Q62141 28-107): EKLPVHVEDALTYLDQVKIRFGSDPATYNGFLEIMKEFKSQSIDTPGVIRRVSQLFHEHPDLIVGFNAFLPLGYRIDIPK
Briefly: WaterLOGSY NMR titration; STD and 1H-15N HSQC.

For experiment [2], the target named is T1, mSin3B PAH1 domain. In words: 1H-15N HSQC titration, STD and WaterLOGSY NMR.
For experiment [3], the target named is T1, mSin3B PAH1 domain. Briefly: 1H-15N HSQC, STD and WaterLOGSY NMR (weak/moderate).
The target in experiment [4] is T1, mSin3B PAH1 domain. Briefly: STD, WaterLOGSY and HSQC NMR.

By Kd is commonly meant the free concentration of one partner at which half of the binding sites on the other are occupied at equilibrium, for simple one-to-one binding. A low value points to tighter binding.

On mSin3B PAH1 domain [1], `CN(C)CCCN1c2ccccc2Sc2ccc(Cl)cc21` [YN29, chlorpromazine] had a Kd of 15 ± 4.2 µM.

Regarding `C#CC(C)(O)CCc1cc(C)c(OC)cc1C` (stereo not shown) [YN3], at mSin3B PAH1 domain [2], the “1H-15N HSQC titration, STD and WaterLOGSY NMR” value is “four compounds YN29, YN31, YN3, and YN28, have a strong affinity for the mSin3B PAH1 domain”. As for `COc1cc(CNC(=O)CCCC/C=C/C(C)C)ccc1O` [YN39], at mSin3B PAH1 domain [3], the “1H-15N HSQC, STD and WaterLOGSY NMR (weak/moderate)” value was “only YN39, YN40, and YN42 showed clear signals in the STD spectra”. Consider `CNCCCC12CCC(c3ccccc31)c1ccccc12` [YN40], for which, on mSin3B PAH1 domain [3], the “1H-15N HSQC, STD and WaterLOGSY NMR (weak/moderate)” value was “only YN39, YN40, and YN42 showed clear signals in the STD spectra”. As to `Clc1ccc2c(c1)C(N1CCNCC1)=Nc1ccccc1O2` [YN42], at mSin3B PAH1 domain [3], the “1H-15N HSQC, STD and WaterLOGSY NMR (weak/moderate)” value was “only YN39, YN40, and YN42 showed clear signals in the STD spectra”. For the molecule `CN(C)CC/C=C1/c2ccccc2Sc2ccc(Cl)cc21` [YN28, chlorprothixene], binding at mSin3B PAH1 domain [1] was put at a Kd of 35 ± 11 µM. Take `Fc1ccc([C@@H]2CCNC[C@H]2COc2ccc3c(c2)OCO3)cc1` [paroxetine]: on mSin3B PAH1 domain [4], the “STD, WaterLOGSY and HSQC NMR” value is “STD, WaterLOGSY, and HSQC experiments showed that paroxetine binds strongly to the PAH1 domain of mSin3B”.
